Source: article PMC5289826 (PLoS ONE, 2017)
One block for each compound: values may come before it.

Tests used:
[1] = target: T1, recombinant human 11β-HSD1 (Homo sapiens, UniProt P28845); experiment: 11β-HSD1 enzyme activity in cell lysates (cortisone to cortisol, radiolabeled tracer, TLC); format: biochemical; details: for 11β-HSD1 Residual activity, % of control at 100 nM: 100 nM compound; for 11β-HSD1 Residual activity, % of control at 100 nM / 11β-HSD1 Residual activity, % of control at 1 μM: lysates of HEK-293 cells, 200 nM cortisone, mean of three experiments; for 11β-HSD1 Residual activity, % of control at 1 μM: 1 μM compound
T1 construct: expressed in transfected cells
Description: (§1) Human embryonic kidney (HEK-293) cells either stably expressing human 11β-HSD1 and H6PDH (HHH7 clone, [38]) or 11β-HSD2 (AT8 clone, [39]), or transiently expressing human 17β-HSD1 or 17β-HSD2, were cultivated in Dulbecco’s modified Eagle medium (DMEM) containing 4.5 g/L glucose, 10% fetal bovine serum, 100 U/mL penicillin, 0.1 mg/mL streptomycin, 1 × MEM nonessential amino acids, and 10 mM HEPES buffer, pH 7.4. Cells were washed with phosphate-buffered saline (PBS), centrifuged for 4 min at 150 × g, and the cell pellets were snap frozen on dry ice and stored at −80°C until further use.
(§2) Cell lysates were resuspended in TS2 buffer (100 mM NaCl, 1 mM EGTA, 1 mM EDTA, 1 mM MgCl2, 250 mM sucrose, 20 mM Tris-HCl, pH 7.4), followed by sonication at 4°C using a Hielscher UP50H ultrasonic processor (0.3 cycle, 20 amplitude %, 20 impulses; Hielscher Ultrasonics GmbH, Teltow Germany). Cell lysates, reaction mixture, and either vehicle (DMSO) or inhibitor were incubated for 10 min at 37°C in a final volume of 22.2 μL. The solvent concentration was 0.1%. […] 11β-HSD2 activity was measured in the presence of 50 nM cortisol and 500 μM NAD^+. An amount of 50 nCi of radiolabeled tracer substrate was included in the experiments. […] The bands of the corresponding steroids were excised, followed by scintillation counting and calculation of the amount of substrate conversion. Data were obtained from at least three independent measurements. Glycyrrhetinic acid (CTRL 1) was used as positive control for 11β-HSD1 and 11β-HSD2 inhibition, apigenin (CTRL 2) for 17β-HSD1, and compound 22 from Vuorinen et al. [40](CTRL 3) for 17β-HSD2 inhibition.

endogenous 11β-HSD1 = target: T2, endogenous 11β-HSD1 (Homo sapiens, UniProt P28845); experiment: 11β-HSD1-dependent cortisol formation in intact primary human keratinocytes; format: cell-based; details: for inhibition of cortisol formation (in words): 1 μM compound, primary human keratinocytes, 1 μM cortisone, 24 h; for IC50: read-out: estimated IC50 of cortisol formation
T2 construct: intact primary human keratinocytes expressing endogenous 11β-HSD1; host or cells: primary human epidermal keratinocytes
Description: Human epidermal keratinocytes obtained from CELLnTEC advanced Cell Systems (Berne, Switzerland) were maintained in CnT-Prime medium (http://cellntec.com/products/cnt-pr/#datasheet) at 37°C. Cells were subcultivated before reaching confluence. After reaching 90% of confluence, the keratinocytes were washed twice with PBS prior to change to cortisol-free CnT-Prime medium (custom-made by CELLnTEC). […] Compound CAS 1009373-58-3 (CTRL 4, Merck Millipore, Darmstadt, Germany) was used as positive control. After 24 h cell culture supernatants were collected and the amount of cortisol produced was measured on a Mulstiskan Ascent plate reader (MTX Lab Systems, Bradenton, FL) using the Cortisol Parameter Assay Kit (R&D Systems, Minneapolis, MN) following the instructions by the manufacturer. Cell viability was assessed using PrestoBlue® Cell Viability Reagent (Invitrogen, Carlsbad, CA) according to the manufacturer’s instructions.

human 17β-HSD2 = tested on: T3, human 17β-HSD2; experiment: 17β-HSD2 enzyme activity in cell lysates (estradiol to estrone); format: biochemical; details: 1 μM, 200 nM estradiol
T3 construct: expressed in transfected cells; host or cells: HEK-293 (transient)
Description: as §1, §2

[2] = tested on: T4, recombinant human 11β-HSD2; experiment: 11β-HSD2 enzyme activity in cell lysates (cortisol to cortisone); format: biochemical; details: 1 μM compound; lysates of HEK-293 cells; 50 nM cortisol
T4 construct: expressed in transfected cells
Description: as §1, §2

human 17β-HSD1 = tested on: T5, human 17β-HSD1; experiment: 17β-HSD1 enzyme activity in cell lysates (estrone to estradiol); format: biochemical; details: 1 μM, 200 nM estrone
T5 construct: expressed in transfected cells; host or cells: HEK-293 (transient)
Description: as §1, §2

human skin biopsies [3] = experiment: Dermal collagen III content in UV exposed ex vivo human skin biopsies (anti-collagen III antibody)
Description: (§3) Ex vivo skin experiments were performed as contract research by Cutech Biotechnology following the Helsinki declaration and who obtained permission as well as informed consent from the patient (Padova, Italy). Human skin from abdominal plastic surgery of a donor was used. Skin samples were cut in pieces of approximately 8 × 3 mm (diameter × thickness) and cultured in an air-liquid interface in a perforated ring of stainless steel in contact with culture medium (modified Williams’ E medium, Sigma Aldrich) up to day 6. The culture medium was renewed on day 0 and day 3. The test compounds were applied topically and renewed daily. The application was performed as follows: skin biopsies were gently cleaned with a cotton pad and 4 μL of 10 μM or 100 μM test compound were applied on top of each piece and covered with a 6 mm (diameter) delivery membrane (CoTran 9728 Controlled Caliper Ethylene Vinyl Acetate Membrane, 3M, St. Paul, MN, USA).
Skin biopsies were subjected to UV irradiation using a BIO-SUN system (Vilber Lourmat, Eberhardzell, Germany). The system had the following specifications: Lamp wave length: UVB 312 nm (range 280–320 nm) and UVA 365 nm (range 355–375 nm), range of measure (irradiance): accuracy and linearity ± 0.2%, range of programmed energy: 0.1 to 99.99 J/cm^2, intensity: UVA (365 nm) 5 mW/cm^2, UVB (312 nm) 3 mW/cm^2, UVA + UVB: 5.6 + 3.2 mW/cm^2, respectively. The selected UV irradiation intensities were 40% and 80% of the Biological Effective Dose (BED) of 7.5 J/cm^2 UV daylight as described by Del Bino et al.. UV 40% BED = 3.0 J/cm^2 (= 0.1 J/cm^2 UVB + 2.9 J/cm^2 UVA); UV 80% = 6.0 J/cm^2 (= 0.2 J/cm^2 UVB + 5.8 J/cm^2 UVA).
Furthermore, in a preliminary set of experiments, skin biopsies were UV irradiated at 3.0 J/cm^2 and 6.0 J/cm^2 and treated topically with 4 μL of 10 μM or 100 μM of the respective inhibitor, followed by determination of collagen III content using a mouse monoclonal anti-collagen III antibody (Sigma Aldrich).

human 11β-HSD1 = tested on: T6, human 11β-HSD1; experiment: 11β-HSD1 activity assay in intact HEK-293 cells co-expressing 11β-HSD1 and H6PDH; format: cell-based; details: 100 nM and 1 μM compound; intact HHH7 cells; 200 nM cortisone; 30 min
T6 construct: expressed in transfected cells
Description: HEK-293 cells co-expressing 11β-HSD1 and H6PDH were seeded in poly-L-lysine coated 96 well-plates (30’000 cells/well) and cultivated in DMEM. At 24 h post-seeding, the cells were washed with charcoal-treated serum-free DMEM (cDMEM) and incubated for 3 h in 100 μL cDMEM. Then, the medium was aspirated and replaced by 30 μL cDMEM. […] The reactions were terminated after 30 min of incubation, followed by analysis of substrate conversion as described above. Data were obtained from at least three independent measurements.

human skin biopsies [4] = experiment: Dermal total collagen content in ex vivo human skin biopsies (Picrosirius Red); details: for effect on cortisone-induced collagen decrease (in words): 10 μM or 100 μM inhibitor topically, 6 days, 100 nM cortisone for 5 days
Description: as §3
Skin viability was assessed in two skin biopsies after 6 days of treatment using methylthiazolyldiphenyl‐tetrazolium bromide (MTT, Sigma Aldrich) staining. Total dermal collagen in skin sections was semi-quantitatively evaluated by Picrosirius Red histochemical staining (using Picric Acid, Fast Green FCF and Direct Red from Sigma Aldrich) that dyes collagen fibers in purple-red. […] The evaluation was performed by estimating both color intensity and distribution using IMAGE J (NIH) analysis software, allowing to obtain a semi-quantitative evaluation of dermal collagen (collagen score). Two slides of each skin sample were processed by image acquisition and related analysis (i.e. 12 images for each treatment).

[5] = 100 μM, 6.0 J/cm^2 UV irradiation

T1 sequence (P28845 whole entry): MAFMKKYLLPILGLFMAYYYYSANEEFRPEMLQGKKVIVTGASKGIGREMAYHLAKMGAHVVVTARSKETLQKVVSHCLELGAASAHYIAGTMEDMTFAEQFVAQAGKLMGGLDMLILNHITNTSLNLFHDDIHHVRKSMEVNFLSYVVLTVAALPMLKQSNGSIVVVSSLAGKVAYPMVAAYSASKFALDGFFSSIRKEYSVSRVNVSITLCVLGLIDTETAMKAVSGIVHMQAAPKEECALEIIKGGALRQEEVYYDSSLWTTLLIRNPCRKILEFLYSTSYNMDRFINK
T2 sequence (P28845 whole entry): as above

SMILES: CC1CCN(C(=O)c2cccc(-c3ccc(O)cc3)c2)CC1 [7b, (4’-Hydroxy-[1,1’-biphenyl]-3-yl)(4-methylpiperidin-1-yl)methanone]
IC50 [1]: 40.4 nM | 11β-HSD1 Residual activity, % of control at 100 nM [1]: 38 % of control | 11β-HSD1 Residual activity, % of control at 1 μM [1]: 5 % of control | inhibition of cortisol formation (in words) (endogenous 11β-HSD1): almost completely inhibited | IC50 (endogenous 11β-HSD1): ≤ 100 nM | inhibition of 17β-HSD2 (in words) (human 17β-HSD2): selective | 11β-HSD2 Residual activity, % of control at 1 μM [2]: > 90 % of control | inhibition of 17β-HSD1 (in words) (human 17β-HSD1): selective | inhibition of 11β-HSD1 in intact cells (in words) (human 11β-HSD1): almost completely inhibited

SMILES: C[C@]12CCC(=O)C=C1CC[C@@H]1[C@@H]2C(=O)C[C@@]2(C)[C@H]1CC[C@]2(O)C(=O)CO [cortisone, reference compound]
decrease in dermal collagen (human skin biopsies [4]; 10 nM, 100 nM and 1 μM cortisone, p<0.01): 20–26%

SMILES: Cc1ccc(-c2cccc(C(=O)N3CCC(C)CC3)c2)cn1 [2b, (4-Methylpiperidin-1-yl)(3-(6-methylpyridin-3-yl)phenyl)methanone]
IC50 [1]: 42.2 nM | 11β-HSD1 Residual activity, % of control at 100 nM [1]: 36 % of control | 11β-HSD1 Residual activity, % of control at 1 μM [1]: 5 % of control | inhibition of cortisol formation (in words) (endogenous 11β-HSD1): almost completely inhibited | IC50 (endogenous 11β-HSD1): ≤ 100 nM | inhibition of 17β-HSD2 (in words) (human 17β-HSD2): selective | 11β-HSD2 Residual activity, % of control at 1 μM [2]: > 90 % of control | inhibition of 17β-HSD1 (in words) (human 17β-HSD1): selective | collagen III vs UV treated vehicle control (in words) (human skin biopsies [3]; 10 μM, UV irradiated biopsies): did not result in significant changes | collagen III vs UV treated vehicle control (in words) (human skin biopsies [3]; [5]): significantly higher collagen III levels | inhibition of 11β-HSD1 in intact cells (in words) (human 11β-HSD1): almost completely inhibited | effect on cortisone-induced collagen decrease (in words) (human skin biopsies [4]): prevented the cortisone-induced collagen decrease

Continued by falling IC50 [1], values first:

IC50 [1]: 34.5 nM | 11β-HSD1 Residual activity, % of control at 100 nM [1]: 19 % of control | 11β-HSD1 Residual activity, % of control at 1 μM [1]: 1 % of control | inhibition of cortisol formation (in words) (endogenous 11β-HSD1): almost completely inhibited | IC50 (endogenous 11β-HSD1): ≤ 100 nM | melting point: 106 to 108 °C
SMILES: Cc1ccc(-c2cccc(C(=O)N3CCCCCC3)c2)cc1F [3e, Azepan-1-yl(3’-fluoro-4’-methyl-[1,1’-biphenyl]-3-yl)methanone]
inhibition of 17β-HSD2 (in words) (human 17β-HSD2): selective | 11β-HSD2 Residual activity, % of control at 1 μM [2]: > 90 % of control | inhibition of 17β-HSD1 (in words) (human 17β-HSD1): selective | collagen III vs UV treated vehicle control (in words) (human skin biopsies [3]; 100 μM, 3.0 J/cm^2 UV irradiation, p<0.01): significantly higher collagen III | collagen III vs UV treated vehicle control (in words) (human skin biopsies [3]; [5]): significantly higher collagen III | effect on UV-mediated decrease in collagen III levels (in words) (human skin biopsies [3]; topical 10 μM or 100 μM, 3.0 and 6.0 J/cm^2 UV, preliminary): prevented the decrease in collagen III levels | inhibition of 11β-HSD1 in intact cells (in words) (human 11β-HSD1): almost completely inhibited | effect on cortisone-induced collagen decrease (in words) (human skin biopsies [4]): prevented the cortisone-induced collagen decrease

IC50 [1]: 23.4 nM | 11β-HSD1 Residual activity, % of control at 100 nM [1]: 21 % of control | inhibition of cortisol formation (in words) (endogenous 11β-HSD1): almost completely inhibited | IC50 (endogenous 11β-HSD1): ≤ 100 nM
SMILES: O=C(c1cccc(-c2ccccc2)c1)N1CCCCCC1 [12e, [1,1’-Biphenyl]-3-yl(azepan-1-yl)methanone]
inhibition of 17β-HSD2 (in words) (human 17β-HSD2): selective | 11β-HSD2 Residual activity, % of control at 1 μM [2]: > 90 % of control | inhibition of 17β-HSD1 (in words) (human 17β-HSD1): selective | collagen III vs UV treated vehicle control (in words) (human skin biopsies [3]; 10 μM, UV irradiated biopsies): did not result in significant changes | collagen III vs UV treated vehicle control (in words) (human skin biopsies [3]; [5]): significantly higher collagen III levels | inhibition of 11β-HSD1 in intact cells (in words) (human 11β-HSD1): almost completely inhibited | effect on cortisone-induced collagen decrease (in words) (human skin biopsies [4]): prevented the cortisone-induced collagen decrease
